Experimental data from PubChem BioAssay (NCI).
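Compound exposure: 48 hours, 5 concentrations, 96-well plates. TGI: concentration producing complete growth inhibition.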

Experiments:
Test in all cases: NCI tumour cell line growth inhibition, 48 h
[1] = test system: P388/ADR leukemia
[2] = test system: P388 leukemia
[3] = test system: SN12K1 renal
[4] = test system: HOP-62 NSCLC
[5] = test system: DMS 273 small cell lung
[6] = test system: T-47D breast
[7] = test system: SR leukemia
[8] = test system: TK-10 renal
[9] = test system: RXF-631 renal
[10] = test system: LXFL 529 NSCLC
[11] = test system: BT-549 breast

Structure (SMILES) | TGI [2] | TGI [3] | TGI [4] | TGI [5] | TGI [6] | TGI [7] | TGI [8] | further results
Cc1[nH]c(=O)[nH]c(=O)c1/C=C/C(=O)NC(CO)CC(C)C (configuration not stated) | > 375 µM | > 375 µM | > 375 µM | > 375 µM | – | – | – | TGI [1]: > 149 µM
CCOC(=O)/C=C/CC(C)(C)COC(C)=O | – | – | – | – | > 10 µM | > 10 µM | > 10 µM | –
CC(C)=CCc1c(O)cc(O)c2c1OC(c1ccc(O)cc1)C(O)C2=O (configuration not stated) | – | – | 36.3 µM | – | – | – | 60.6 µM | TGI [9]: 97.9 µM; TGI [10]: 86.9 µM
CCOC(=O)C1(CO)CSCCSC1 | – | – | – | – | – | > 100 µM | > 100 µM | –
CCC(C)C(=O)OC1C(=O)OC2CC3C(C)=CC(=O)C(O)C3(C)C3C4(O)OCC23C1C(C)C4O (configuration not stated) | – | – | 0.149 µM | – | 0.158 µM | – | 0.845 µM | TGI [11]: 0.094 µM
CC(=O)OC1C=C(C=O)C(O)(C=O)C2(C)CCCC(C)(C)C12 (configuration not stated) | 0.525 µM | 3.85 µM | 14.6 µM | 8.42 µM | – | – | – | –
